Results reported in patent US8871788B2, “Substituted N-alkyl and N-acyl tetrahydro-isoquinoline derivatives, preparation and therapeutic use thereof” (Sanofi, priority 2010, dated 2014).

Legend:
rhesus H3 = molecular target: T1, rhesus H3 (Macaca mulatta, UniProt Q865E1); assay: GTPγS radioligand binding assay, rhesus H3 constitutive functional activity in cell membranes; type: biochemical, rhesus monkey (Macacca Mulatta); details: relative to basal levels
T1 construct: 445 amino acid H3 receptor; expressed in transfected cells; host or cells: Flp-In T-REx 293 Cell Line (Invitrogen), pcDNA5/FRT/TO, induced with tetracycline
Procedure: (§1) Rhesus H3 membranes were prepared from the Flp-In T-REx 293 Cell Line (Invitrogen) stably transfected with pcDNA5/FRT/TO (Invitrogen) containing the rhesus monkey (Macacca Mulatta) 445 amino acid H3 receptor. (Genbank #AY231164). Stably transfected cultures were amplified in tissue culture flasks by standard tissue culture methods and induced to express rhesus H3 by exposure to 500 ng/ml tetracycline (Cellgro) for 24 hours. After induction, cells were dissociated from flasks utilizing Cell Stripper (Cellgro). Cells were centrifuged (1K×g, 5 min) and pellet frozen in an ethanol-dry ice bath to disrupt cell membranes. Frozen cell pellet was re-suspended in 5 mM HEPES (pH 7.4, Invitrogen) at 10 ml/1000 cm2 of harvested cells. The cell suspension was drawn through an 18 gauge needle (2-3×) followed by a 23 gauge needle (2-3×) to further disrupt cell membranes. The cell suspension was centrifuged (40K×g, 30 min). Cell membrane pellet was re-suspended in 5 mM HEPES (pH 7.4, Invitrogen) at a final protein concentration of 10 mg/ml. Rhesus H3 membranes were stored under liquid nitrogen prior to use in [3H]-Methylhistamine and GTPγS radioligand binding assays.

Rat H3 = Rat H3 (Rattus norvegicus, UniProt Q9QYN8); assay: Rat H3 radioligand binding (similar procedure); details: rat H3, similar procedure to rhesus binding
Procedure: (§2) Rhesus H3 radioligand binding assay was performed using rhesus H3 receptor membranes (prepared as described above), [3H]-Methylhistamine (Perkin Elmer) and WGA SPA beads (wheat germ agglutinin scintillation proximity assay) beads (Amersham). The assay was performed in 96-well Opti-Plates (Packard). Each reaction contained 50 μl rhesus H3 membranes (20-30 μg total protein), 50 μl WGA SPA beads (0.1 μg) and 50 μl of 83Ci/mmol [^3H]-Methylhistamine (final concentration 2 nM) and 50 μl of tested compound. The compounds of this invention and/or vehicle were diluted with binding buffer from 10 mM DMSO stocks. Assay plates were sealed with TopSeal (Perkin Elmer) and mixed on shaker (25° C., 1 hour). Assay plates were read on TopCount scintillation counter (Packard). Results were analyzed by Hill transformation and Ki values were determined by Cheng-Prusoff equation. Similar procedure was employed to determine the binding data for rat.

[1] = molecular target: T2, rhesus (Macacca Mulatta) H3 receptor (Macaca mulatta, UniProt Q865E1); assay: Rhesus H3 [3H]-Methylhistamine radioligand binding assay (SPA); parameters: species or system rhesus monkey (Macacca Mulatta); details: [3H]-Methylhistamine 2 nM, rhesus H3 membranes, Cheng-Prusoff
T2 construct: 445 amino acid H3 receptor; expressed in transfected cells; host or cells: Flp-In T-REx 293 Cell Line (Invitrogen), pcDNA5/FRT/TO, induced with tetracycline
Procedure: as §1, §2

Chain of Rat H3 (Q9QYN8 whole entry): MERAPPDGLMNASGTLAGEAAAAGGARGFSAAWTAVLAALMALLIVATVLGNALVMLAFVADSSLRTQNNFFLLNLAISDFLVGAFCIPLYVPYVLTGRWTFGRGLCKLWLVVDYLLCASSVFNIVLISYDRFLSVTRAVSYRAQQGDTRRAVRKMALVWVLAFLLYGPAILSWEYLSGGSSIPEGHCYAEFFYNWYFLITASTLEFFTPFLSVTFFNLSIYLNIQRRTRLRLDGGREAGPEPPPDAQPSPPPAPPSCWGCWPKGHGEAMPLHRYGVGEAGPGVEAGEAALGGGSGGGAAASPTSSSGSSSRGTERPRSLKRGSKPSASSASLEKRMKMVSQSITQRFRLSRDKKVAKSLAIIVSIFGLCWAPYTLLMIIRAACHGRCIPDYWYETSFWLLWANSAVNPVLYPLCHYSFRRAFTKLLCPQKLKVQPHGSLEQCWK
T1 sequence (Q865E1 1-445): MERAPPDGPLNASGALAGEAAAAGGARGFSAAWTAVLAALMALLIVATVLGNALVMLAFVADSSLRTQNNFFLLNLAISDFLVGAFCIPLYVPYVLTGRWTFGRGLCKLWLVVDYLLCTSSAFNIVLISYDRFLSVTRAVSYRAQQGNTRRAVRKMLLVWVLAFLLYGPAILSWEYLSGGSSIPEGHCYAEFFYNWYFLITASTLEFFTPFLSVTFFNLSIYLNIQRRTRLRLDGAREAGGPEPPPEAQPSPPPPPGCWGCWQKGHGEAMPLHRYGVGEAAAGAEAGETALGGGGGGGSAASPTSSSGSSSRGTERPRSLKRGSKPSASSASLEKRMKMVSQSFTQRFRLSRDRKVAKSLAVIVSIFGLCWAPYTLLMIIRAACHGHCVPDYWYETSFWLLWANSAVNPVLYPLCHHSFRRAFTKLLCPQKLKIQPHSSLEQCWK
T2 sequence (Q865E1 1-445): as above

| Structure (SMILES) | GTPγS-35 ASSAY % Inverse Agonism (rhesus H3) | Ki (Rat H3) | Ki [1] |
| --- | --- | --- | --- |
| C[C@H]1CCCN1[C@H]1CCN(c2ccc3c(c2)CCN(Cc2ccc4c(c2)OCCO4)C3)C1 [Example 8, 2-(2,3-Dihydro-benzo[1,4]dioxin-6-ylmethyl)-6-((2S,3′S)-2-methyl-[1,3′]bipyrrolidinyl-1′-yl)-1,2,3,4-tetrahydro-isoquinoline] | −9.1% | 6.9 nM | 0.46 nM |
| C[C@H]1CCCN1[C@H]1CCN(c2ccc3c(c2)CN(C(=O)C2CCOCC2)CC3)C1 [Example 2, [7-((2S,3′S)-2-Methyl-[1,3′]bipyrrolidinyl-1′-yl)-3,4-dihydro-1H-isoquinolin-2-yl]-(tetrahydro-pyran-4-yl)-methanone] | −25.5% | 0.91 nM | 0.66 nM |
| CC(C)N1CCc2cc(N3CC[C@H](N4CCC[C@@H]4C)C3)ccc2C1 [Example 10, 2-Isopropyl-6-((2S,3′S)-2-methyl-[1,3′]bipyrrolidinyl-1′-yl)-1,2,3,4-tetrahydro-isoquinoline] | −9.3% | 0.91 nM | 0.75 nM |
| C[C@H]1CCCN1[C@H]1CCN(c2ccc3c(c2)CCN(C(=O)c2cc4c(ccn4CCOC[Si](C)(C)C)s2)C3)C1 [Example 20, [6-((2S,3′S)-2-Methyl-[1,3′]bipyrrolidinyl-1′-yl)-3,4-dihydro-1H-isoquinolin-2-yl]-[4-(2-trimethylsilanylmethoxy-ethyl)-4H-thieno[3,2-b]pyrrol-2-yl]-methanone] | −23.0% | 140 nM | 22 nM |
| CCOC(=O)N1CCC(N2CCc3cc(N4CC[C@H](N5CCC[C@@H]5C)C4)ccc3C2)CC1 [Example 3, 4-[6-((2S,3′S)-2-Methyl-[1,3′]bipyrrolidinyl-1′-yl)-3,4-dihydro-1H-isoquinolin-2-yl]-piperidine-1-carboxylic acid ethyl ester] |  | 0.97 nM | 0.38 nM |
| C[C@H]1CCCN1[C@H]1CCN(c2ccc3c(c2)CCN(C2CCOCC2)C3)C1.O=C(O)C(F)(F)F [Example 4, 6-((2S,3′S)-2-Methyl-[1,3′]bipyrrolidinyl-1′-yl)-2-(tetrahydro-pyran-4-yl)-1,2,3,4-tetrahydro-isoquinoline hydrochloride] | −28.0% | 0.05 nM | 0.11 nM |
| C[C@H]1CCCN1[C@H]1CCN(c2ccc3c(c2)CCN(Cc2ccc(F)cc2)C3)C1 [Example 9, 2-(4-Fluoro-benzyl)-6-((2S,3′S)-2-methyl-[1,3′]bipyrrolidinyl-1′-yl)-1,2,3,4-tetrahydro-isoquinoline] | −6.2% | 0.19 nM | 0.37 nM |
| C[C@H]1CCCN1[C@H]1CCN(c2ccc3c(c2)CCN(C2CCN(C(=O)OC(C)(C)C)C2)C3)C1 (stereo partly drawn) [Example 6, 3-[6-((2S,3′S)-2-Methyl-[1,3′]bipyrrolidinyl-1′-yl)-3,4-dihydro-1H-isoquinolin-2-yl]-pyrrolidine-1-carboxylic acid tert-butyl ester] | −24.9% | 0.74 nM | 0.9 nM |
| C[C@H]1CCCN1[C@H]1CCN(c2ccc3c(c2)CCN(C2CCC(NC(=O)OC(C)(C)C)CC2)C3)C1 (stereo partly drawn) [Example 11, {4-[6-((2S,3′S)-2-Methyl-[1,3′]bipyrrolidinyl-1′-yl)-3,4-dihydro-1H-isoquinolin-2-yl]-cyclohexyl}-carbamic acid tert-butyl ester] | −7.9% | 0.31 nM | 0.35 nM |
| C[C@H]1CCCN1[C@H]1CCN(c2ccc3c(c2)CCN(CC2CCCC2)C3)C1 [Example 7, 2-Cyclopentylmethyl-6-((2S,3′S)-2-methyl-[1,3′]bipyrrolidinyl-1′-yl)-1,2,3,4-tetrahydro-isoquinoline] | −6.9% | 0.19 nM | 1.2 nM |
| C[C@H]1CCCN1[C@H]1CCN(c2ccc3c(c2)CCN(C(=O)C(c2ccccc2)c2ccccc2)C3)C1 [Example 13, 1-[6-((2S,3′S)-2-Methyl-[1,3′]bipyrrolidinyl-1′-yl)-3,4-dihydro-1H-isoquinolin-2-yl]-2,2-diphenyl-ethanone] | −16.1% | 7.7 nM | 3.7 nM |
| CCOC(=O)C1CCC(N2CCc3cc(N4CC[C@H](N5CCC[C@@H]5C)C4)ccc3C2)CC1 (stereo partly drawn) [Example 5, 4-[6-((2S,3′S)-2-Methyl-[1,3′]bipyrrolidinyl-1′-yl)-3,4-dihydro-1H-isoquinolin-2-yl]-cyclohexanecarboxylic acid ethyl ester] | −40.0% | 0.59 nM | 0.57 nM |
| COc1cccc(S(=O)(=O)N2CCc3cc(N4CC[C@H](N5CCC[C@@H]5C)C4)ccc3C2)c1.O=C(O)C(F)(F)F [Example 22, 2-(3-Methoxy-benzenesulfonyl)-6-((2S,3′S)-2-methyl-[1,3′]bipyrrolidinyl-1′-yl)-1,2,3,4-tetrahydro-isoquinoline; compound with trifluoro-acetic acid] | −27.7% | 15 nM | 25 nM |
| C[C@H]1CCCN1[C@H]1CCN(c2ccc3c(c2)CCN(C(=O)Nc2ccc(-c4ccccc4)cc2)C3)C1 [Example 26, 6-((2S,3′S)-2-Methyl-[1,3′]bipyrrolidinyl-1′-yl)-3,4-dihydro-1H-isoquinoline-2-carboxylic acid biphenyl-4-ylamide] | −16.1% | 330 nM | 74 nM |

More lines, now with the values ahead:

| GTPγS-35 ASSAY % Inverse Agonism (rhesus H3) | Ki (Rat H3) | Ki [1] | Structure (SMILES) |
| --- | --- | --- | --- |
| −16.8% | 2.7 nM | 0.22 nM | C[C@H]1CCCN1[C@H]1CCN(c2ccc3c(c2)CCN(C(=O)c2ccoc2)C3)C1 [Example 15, Furan-3-yl-[6-((2S,3′S)-2-methyl-[1,3′]bipyrrolidinyl-1′-yl)-3,4-dihydro-1H-isoquinolin-2-yl]-methanone] |
| −0.5% | 75 nM | 1.2 nM | CCOC(=O)N1CCc2cc(N3CC[C@H](N4CCC[C@@H]4C)C3)ccc2C1 [Example 25, 6-((2S,3′S)-2-Methyl-[1,3′]bipyrrolidinyl-1′-yl)-3,4-dihydro-1H-isoquinoline-2-carboxylic acid ethyl ester] |
| −18.9% | 7.3 nM | 0.29 nM | C[C@H]1CCCN1[C@H]1CCN(c2ccc3c(c2)CCN(C(=O)c2ccccc2)C3)C1 [Example 16, [6-((2S,3′S)-2-Methyl-[1,3′]bipyrrolidinyl-1′-yl)-3,4-dihydro-1H-isoquinolin-2-yl]-phenyl-methanone] |
| −22.5% | 280 nM | 11 nM | COc1cccc(NC(=O)N2CCc3cc(N4CC[C@H](N5CCC[C@@H]5C)C4)ccc3C2)c1 [Example 23, 6-((2S,3′S)-2-Methyl-[1,3′]bipyrrolidinyl-1′-yl)-3,4-dihydro-1H-isoquinoline-2-carboxylic acid (3-methoxy-phenyl)-amide] |
| −17.2% | 2.6 nM | 0.28 nM | C[C@H]1CCCN1[C@H]1CCN(c2ccc3c(c2)CCN(C(=O)c2cccnc2)C3)C1 [Example 14, [6-((2S,3′S)-2-Methyl-[1,3′]bipyrrolidinyl-1′-yl)-3,4-dihydro-1H-isoquinolin-2-yl]-pyridin-3-yl-methanone] |
| −10.4% | 3.1 nM | 0.19 nM | C[C@H]1CCCN1[C@H]1CCN(c2ccc3c(c2)CCN(C(=O)c2ccc(F)cc2)C3)C1 [Example 17, (4-Fluoro-phenyl)-[6-((2S,3′S)-2-methyl-[1,3′]bipyrrolidinyl-1′-yl)-3,4-dihydro-1H-isoquinolin-2-yl]-methanone] |
| −10.7% | 0.24 nM | 0.094 nM | C[C@H]1CCCN1[C@H]1CCN(c2ccc3c(c2)CCN(C(=O)C2CCCCC2)C3)C1 [Example 18, Cyclohexyl-[6-((2S,3′S)-2-methyl-[1,3′]bipyrrolidinyl-1′-yl)-3,4-dihydro-1H-isoquinolin-2-yl]-methanone] |
| −17.4% | 0.22 nM | 0.12 nM | C[C@H]1CCCN1[C@H]1CCN(c2ccc3c(c2)CCN(C(=O)C2CCOCC2)C3)C1 [Example 19, [6-((2S,3′S)-2-Methyl-[1,3′]bipyrrolidinyl-1′-yl)-3,4-dihydro-1H-isoquinolin-2-yl]-(tetrahydro-pyran-4-yl)-methanone] |
